In US8222267B2 (priority 2009, dated 2012):

Assays:
[1] = Open-label pilot study, adverse events / safety of MOXDUO, PERCOCET and preceding IV PCA morphine
[2] = Pharmacokinetics after single oral co-administered dose of morphine and oxycodone (about 3:2) in healthy subjects; details: for AUC0-∞ (dose adjusted) / Cmax: healthy subjects, n = 18
Procedure: Values for the observed maximum plasma concentration (Cmax), total area under the plasma concentration-time curve (AUC0-∞) and the time to maximum plasma concentration (Tmax) were determined.

SMILES: CN1CC[C@]23c4c5ccc(O)c4O[C@H]2[C@@H](O)C=C[C@H]3[C@H]1C5 [Morphine, morphine]
- Overall incidence of nausea, pruritus, constipation, and dizziness ([1]; during IV PCA morphine use vs same time period after first dose of study medication): higher
- Subjects with moderate or severe nausea ([1]; while on IV PCA morphine, before study medication): 25%

SMILES: COc1ccc2c3c1O[C@H]1C(=O)CC[C@@]4(O)[C@@H](C2)N(C)CC[C@]314 [Oxycodone, oxycodone]
- AUC0-∞ (dose adjusted) ([2]; single oral co-administered dose morphine/oxycodone 3 mg/2 mg): 9.62 ng·h/mL/mg
- AUC0-∞ (dose adjusted) ([2]; single oral co-administered dose morphine/oxycodone 12 mg/8 mg): 9.62 ng·h/mL/mg
- Tmax ([2]; human, plasma, po): 1 h
- Cmax ([2]; human, plasma, po, single oral co-administered dose morphine/oxycodone 3 mg/2 mg): 4.9 ng/mL
- Cmax ([2]; human, plasma, po, single oral co-administered dose morphine/oxycodone 12 mg/8 mg): 17.8 ng/mL
- Dose proportionality of plasma levels ([2]; single-dose combination, 3 mg/2 mg to 12 mg/8 mg dose range, dose-normalized Cmax and AUC0-∞ within 80-125% limits): increase linearly in a dose-proportionate manner
